Source: patent publication US4841054A, “2,6-dimethyl-3,5-dimethoxycarbonyl-4-(5'-tri methylsilyl-2'-furyl)-1,4-dihydropyridine” (priority 1988, dated 1989)
Entries after “also recorded” stand apart in the source; their conditions may differ.

Experiments:
[1] = test system: spontaneously hypertensive rats; assay: Effect on arterial pressure in spontaneously hypertensive rats, single administration; format: in vivo; conditions: for hypotensive effect by the 6th hour, comparison in words: compound of the present invention vs Nifedipine
in vivo = conditions: mouse, in vivo, ip
Protocol: (§1) The mean lethal dose (LD50) was determined by the Litchfield and Wilcoxon method.

white nondescript mice = assay: in vivo; conditions: for toxicity in words: conclusion from Table 2
Protocol: as §1

[2] = literature, cited from earlier work
[3] = test system: spontaneously hypertensive rats; assay: Effect on heart rate in spontaneously hypertensive rats; format: in vivo; conditions: for effect on heart rate: 10 and 20 mg/kg, peroral, SHR
Protocol: (§2) In experiments on spontaneously hypertensive rats the compound according to the present invention upon a single administration (10 mg/kg in stomach) caused reduction of systolic arterial pressure. The maximum hypotensive effect (by 21 %) was observed by the 6-th hour after administration of the compound, after 24 hours the pressure was reduced by 17 % as compared to the initial value. A […] administration of the compound for 5 days in the dose of 10 mg/kg into the stomach caused the maximum reduction of the pressure (by 22 %) on the 6-th day, i.e., one day after discontinuation of administration of the compound. A reduced pressure was observed on the 3-rd day (by 10 %) after discontinuation of the administration.

[4] = test system: spontaneously hypertensive rats; assay: Effect on systolic arterial pressure in spontaneously hypertensive rats, administration for 5 days; format: in vivo; conditions: 10 mg/kg into the stomach for 5 days
Protocol: as §2

Solubility = format: physicochemical
[5] = Stability by UV spectrum (solid in the light; alcoholic solution)
[6] = 10 mg/kg, single administration in stomach

| Structure (SMILES) | Hypotensive effect, %, after 48 hrs ([1]; 10 mg/kg) [%] | Hypotensive effect, %, after 1 hr [1, 6] [%] | Hypotensive effect, %, after 6 hrs [1, 6] [%] | Hypotensive effect, %, after 24 hrs [1, 6] [%] | LD50 at 240 h (in vivo) [mg/kg] | toxicity in words (white nondescript mice) | hypotensive effect by the 6th hour, comparison in words [1] | hypotensive effect / systolic pressure 24 hours after administration, in words [1] | effect on heart rate [3] | also measured |
| --- | --- | --- | --- | --- | --- | --- | --- | --- | --- | --- |
| COC(=O)C1=C(C)NC(C)=C(C(=O)OC)C1c1ccco1 [Analog, 2,6-dimethyl-3,5-dimethoxycarbonyl-4-(2'-furyl)-1,4-dihydropyridine] | 0 | 12 | 7 | 0 | 2900 | low toxicity |  |  |  | hypotensive properties, comparison in words ([1]; vs the compound of the present invention): subtantially lower than those of the compound of the present invention; hypotensive activity compared with Nifedipine ([2]; vs Nifedipine): considerably lower than that of Nifedipine |
| COC(=O)C1=C(C)NC(C)=C(C(=O)OC)C1c1ccccc1[N+](=O)[O-] [Nifedipine, 2,6-dimethyl-3,5-dimethoxycarbonyl-4-(O-nitrophenyl)-1,4-dihydropyridine] | 0 | 34 | 23 | 0 |  |  | same hypotensive effect | systolic pressure returned to the initial level | tachycardia | hypotensive effect by the 1st hour, comparison in words ([1]; 1 hour after administration, vs the compound of the present invention): superior to the compound of the present invention; hypotensive and coronarodilating effects [2]: hypotensive and coronarodilating effects |
| COC(=O)C1=C(C)NC(C)=C(C(=O)OC)C1c1ccc([Si](C)(C)C)o1 [Of this invention, 2,6-dimethyl-3,5-dimethoxycarbonyl-4-(5'-trimethylsilyl-2'-furyl)-1,4-dihydropyridine] |  | 13 | 21 | 17 | > 1000 | low toxicity as compared to Nifedipine | same hypotensive effect | still produced the hypotensive effect | either lowers the heart rate or does not change it | Hypotensive effect, %, after 6 hrs ([1]; 20 mg/kg): 30%; Hypotensive effect, %, after 24 hrs ([1]; 20 mg/kg): 39%; Hypotensive effect, %, after 48 hrs ([1]; 20 mg/kg): 28%; duration of hypotensive effect, in words ([1]; vs Nifedipine and/or analog, listed as compound according to the present invention): superior over Nifedipine as regards the duration of its effect; also recorded: more lasting hypotensive effect than the analog and Nifedipine; reduced pressure on the 3rd day after discontinuation ([4]; 3rd day after discontinuation): 10%; maximum reduction of the pressure ([4]; on the 6th day (one day after discontinuation)): 22%; effect on heart rate, comparison in words ([3]; vs Nifedipine): less pronounced effect on the heart rate; death of the mice (white nondescript mice; doses of up to 1,000 mg/kg, intraperitoneal): did not cause death of the mice; solubility in methanol, ethanol, chloroform, acetone (Solubility; methanol, ethanol, chloroform, acetone): well soluble; solubility in water (Solubility; water): substantially insoluble; period during which UV spectrum remained unchanged in alcoholic solution ([5]; alcoholic solution, 5×10^-5 mol): 6 months; stability in the crystalline state and as solutions ([5]; crystalline state and solutions): stable; UV spectrum upon storage of the solid in the light ([5]; solid, in the light, within a year's period): does not change its UV spectrum within a year's period |
